{"source": "paper PMC7033278", "about": "“A Nonpeptide Oxytocin Receptor Agonist for a Durable Relief of Inflammatory Pain” (Scientific Reports, 2020)", "key": {"[1]": {"assay": "lipophilicity LogD7.4 (octanol/PBS)", "assay_type": "physicochemical", "conditions": "experimental, octanol/PBS pH 7.4", "method": "Solubility of LIT-001 was determined from solution of about 1 mg of compound in 500 μl of PBS at pH 7.4. (Figs. 1, S1) The solution was stirred at room temperature for 24 h and centrifuged at 15.000 × g for 5 min. The supernatant was diluted with a mixture of acetonitrile and water and analyzed by HPLC with a diode detector (Gilson; Kinetex 2.6 μm C18 100 A 50 × 4.6 mm column). […] The lipophilicity (LogD7.4) of LIT-001 was measured using […] of a stock solution diluted with different concentrations of octanol and PBS to cover a LogP range from −2 to + 4.5 in a final volume of 1 ml. After stirring for 1 h at room temperature (≈ 20 °C), the samples were centrifuged and the different phases were analyzed by HPLC (Gilson; diode detector, Kinetex 2.6 μ C18 100 A 50 × 4.6 mm column)."}, "[2]": {"assay": "stability in PBS solution over 24 h", "assay_type": "physicochemical", "conditions": "PBS pH 7.4, room temperature, after 24 h"}, "[3]": {"system": "hOTR", "design": "method as in PMID 30199637", "conditions": "human receptor, cited from earlier work"}, "[4]": {"system": "V1aR (hV1AR)", "design": "method as in PMID 30199637", "conditions": "cited from earlier work"}}, "data": [{"smiles": "Cc1cc(C(=O)N2Cc3cnn(C)c3Nc3ccccc32)ccc1CNC(=O)N1CCC[C@H]1C(=S)N(C)C", "note": "[LIT-001]", "values": [{"measurement": "logD", "setting": "[1]", "result": "2 ± 0.3"}, {"measurement": "degradation in PBS solution", "setting": "[2]", "result": "No degradation"}, {"measurement": "EC50", "setting": "[3]; agonist", "result": 25, "unit": "nM"}, {"measurement": "Emax (hOTR)", "setting": "[3]; efficacy", "result": 96, "unit": "%"}, {"measurement": "EC50 (hV1AR)", "setting": "[4]; agonist mode", "result": "non significant"}, {"measurement": "IC50", "setting": "[4]; antagonist mode, read-out: IC50, antagonism of vasopressin induced calcium release on V1aR", "result": 5900, "unit": "nM"}]}]}
